# From patent publication US9434711B2 (Janssen Pharmaceutica, NV, priority 2007, dated 2016)
# Target: canine TRPM8 (Canis lupus familiaris, UniProt Q1A7N1)
# Assay: In Vitro Canine TRPM8 Functional Assay (Ca2+ fluorescence, icilin activation)
# Type: cell-based
# Details: for inhibition at 0.2 µM / % Inh @ 0.2 (μM): compound at 0.2 μM, canine TRPM8, icilin activation; for inhibition at 0.2 µM: read-out: % Inh @ 0.2; for IC50: HEK293 cells stably expressing canine TRPM8, icilin activation, eight-point dose-response, read-out: IC50
# How it was run: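 HEK293 cells stably expressing canine TRPM8 loaded with Calcium 3 dye; compound added and Ca2+ fluorescence monitored 5 min before icilin at a final level giving ~80% maximal response, read on FLIPR or FDSS. EC50 or IC50 from eight-point dose-response, quadruplicate wells per point.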
# canine TRPM8, sequence (Q1A7N1 1-1104): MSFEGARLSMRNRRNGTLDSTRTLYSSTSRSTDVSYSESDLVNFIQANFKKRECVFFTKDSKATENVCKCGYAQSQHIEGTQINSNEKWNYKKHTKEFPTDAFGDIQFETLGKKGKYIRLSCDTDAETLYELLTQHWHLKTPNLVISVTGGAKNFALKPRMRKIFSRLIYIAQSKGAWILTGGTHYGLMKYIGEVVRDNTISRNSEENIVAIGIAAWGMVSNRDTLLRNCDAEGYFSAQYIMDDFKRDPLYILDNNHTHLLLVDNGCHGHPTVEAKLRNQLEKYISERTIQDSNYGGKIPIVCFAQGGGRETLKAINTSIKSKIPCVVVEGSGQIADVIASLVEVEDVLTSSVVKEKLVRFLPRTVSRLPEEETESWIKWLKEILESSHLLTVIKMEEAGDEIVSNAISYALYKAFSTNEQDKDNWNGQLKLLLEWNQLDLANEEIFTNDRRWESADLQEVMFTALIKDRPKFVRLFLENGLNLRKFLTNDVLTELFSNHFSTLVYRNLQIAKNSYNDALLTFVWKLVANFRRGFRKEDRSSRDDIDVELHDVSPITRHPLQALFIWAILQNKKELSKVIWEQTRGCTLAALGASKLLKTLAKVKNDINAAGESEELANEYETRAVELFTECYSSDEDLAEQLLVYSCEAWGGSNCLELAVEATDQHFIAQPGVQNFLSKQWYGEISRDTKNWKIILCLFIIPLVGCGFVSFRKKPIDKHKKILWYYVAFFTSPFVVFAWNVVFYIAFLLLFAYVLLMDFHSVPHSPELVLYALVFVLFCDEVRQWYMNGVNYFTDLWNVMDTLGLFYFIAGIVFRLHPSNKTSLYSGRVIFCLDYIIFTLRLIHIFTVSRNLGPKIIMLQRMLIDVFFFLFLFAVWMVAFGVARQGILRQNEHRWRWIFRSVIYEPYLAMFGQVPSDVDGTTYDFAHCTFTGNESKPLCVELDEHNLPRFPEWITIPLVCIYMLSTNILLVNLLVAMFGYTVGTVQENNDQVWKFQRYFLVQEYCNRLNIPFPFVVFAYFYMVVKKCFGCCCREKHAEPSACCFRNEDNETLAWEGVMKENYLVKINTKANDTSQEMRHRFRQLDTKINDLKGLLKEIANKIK
SMILES,inhibition at 0.2 µM [%],IC50 [nM],% Inh @ 0.2 (μM) [%]
"CCCCN(c1sc2ccccc2c1C)S(C)(=O)=O [Compound 363, N-(Butyl)-N-(3-methyl-benzo[b]thiophen-2-yl)-methanesulfonamide]",84,51,–
"Cc1c(N(CCC(F)(F)F)S(C)(=O)=O)sc2ccccc12 [Compound 364, N-(3-Methyl-benzo[b]thiophen-2-yl)-N-(3,3,3-trifluoro-propyl)-methanesulfonamide]",77,44,–
"Cc1c(N(CC2CC2)S(C)(=O)=O)sc2ccccc12 [Compound 365, N-(Cyclopropylmethyl)-N-(3-methyl-benzo[b]thiophen-2-yl)-methanesulfonamide]",38,–,–
"Cc1c(N(CCOC(C)(C)C)S(C)(=O)=O)sc2ccccc12 [Compound 366, N-(2-tert-Butoxy-ethyl)-N-(3-methyl-benzo[b]thiophen-2-yl)-methanesulfonamide]",85,40,–
"Cc1c(N(CCCC(F)(F)F)S(=O)(=O)c2ccc(C(C)(C)O)cc2)sc2ccccc12 [Compound 371, N-(3-Methyl-benzo[b]thiophen-2-yl)-N-(4,4,4-trifluoro-butyl)-4-(1-hydroxy-1-methyl-ethyl)-benzenesulfonamide]",94,9,–
"Cc1c(N(CCCC(F)(F)F)S(=O)(=O)c2ccc(Oc3ccncc3)cc2)sc2ccccc12 [Compound 372, N-(3-Methyl-benzo[b]thiophen-2-yl)-N-(4,4,4-trifluoro-butyl)-4-(pyridin-4-yloxy)-benzenesulfonamide]",91,27,–
"Cc1c(N(CCCC(F)(F)F)S(=O)(=O)c2ccc(Oc3cccnc3)cc2)sc2ccccc12 [Compound 373, N-(3-Methyl-benzo[b]thiophen-2-yl)-N-(4,4,4-trifluoro-butyl)-4-(pyridin-3-yloxy)-benzenesulfonamide]",77,123,–
"CSc1ncccc1S(=O)(=O)N(Cc1ccc(F)c(C(F)(F)F)c1)c1sc2ccccc2c1C [Compound 377, N-(3-Methyl-benzo[b]thiophen-2-yl)-N-(4-fluoro-3-trifluoromethyl-benzyl)-2-thiomethyl-pyridin-3-yl-sulfonamide]",–,–,65
"COC(=O)c1ccc(CN(c2cc3ccccc3s2)S(=O)(=O)c2cccnc2)cc1 [Compound 380, N-(Benzo[b]thiophen-2-yl)-N-(4-carbomethoxy-benzyl)-pyridin-3-ylsulfonamide]",24,–,–
"O=S(=O)(c1ccccc1)N(Cc1ccc(F)c(C(F)(F)F)c1)c1sc2ccccc2c1CN1CCCC1 [Compound 381, N-(4-Fluoro-3-trifluoromethyl-benzyl)-N-(3-pyrrolidin-1-yl-methyl-benzo[b]thiophen-2-yl)-benzenesulfonamide]",–,–,20
"CCCCN(c1cc2ccccc2s1)S(C)(=O)=O [Compound 382, N-(Benzo[b]thiophen-2-yl)-N-(butyl)-methanesulfonamide]",17,–,–
"Cc1c(N(CCCC(F)(F)F)S(=O)(=O)c2ccc3[nH]c(=O)oc3c2)sc2ccccc12 [Compound 384, N-(3-Methyl-benzo[b]thiophen-2-yl)-N-(4,4,4-trifluoro-butyl)-2-oxo-2,3-dihydro-benzooxazol-6-yl-sulfonamide]",96,17,–
"CC(=O)c1c(N(CCC(F)(F)F)S(=O)(=O)c2ccc(C(=O)O)cc2)sc2ccccc12 [Compound 385, N-(3-Acetyl-benzo[b]thiophen-2-yl)-N-(3,3,3-trifluoro-propyl)-4-carboxy-benzenesulfonamide]",54,–,–
CC(C)(O)c1c(N(Cc2ccc(F)c(C(F)(F)F)c2)S(=O)(=O)c2ccc(Br)cc2)sc2ccccc12 [Compound 388],–,19,97

# Further lines, with some results ahead:
inhibition at 0.2 µM [%],IC50 [nM],SMILES,% Inh @ 0.2 (μM) [%]
67,–,"CS(=O)(=O)CS(=O)(=O)N(Cc1ccc(F)c(C(F)(F)F)c1)c1cc2ccccc2s1 [Compound 362, N-(Benzo[b]thiophen-2-yl)-N-(4-fluoro-3-trifluoromethyl-benzyl)-C-methanesulfonyl-methanesulfonamide]",–
91,10,"Cc1c(N(Cc2ccc(F)c(F)c2)S(C)(=O)=O)sc2ccccc12 [Compound 367, N-(3,4-Difluoro-benzyl)-N-(3-methyl-benzo[b]thiophen-2-yl)-methanesulfonamide]",–
96,18,"Cc1c(N(Cc2ccc(F)c(C(F)(F)F)c2)S(C)(=O)=O)sc2ccccc12 [Compound 368, N-(4-Fluoro-3-trifluoromethyl-benzyl)-N-(3-methyl-benzo[b]thiophen-2-yl)-methanesulfonamide]",–
98,18,"Cc1c(N(Cc2ccc(OC(F)(F)F)cc2)S(C)(=O)=O)sc2ccccc12 [Compound 369, N-(3-Methyl-benzo[b]thiophen-2-yl)-N-(4-trifluoromethoxy-benzyl)-methanesulfonamide]",–
29,–,"N#Cc1cccc(S(=O)(=O)N(Cc2ccc(F)c(C(F)(F)F)c2)c2cc3ccccc3s2)c1 [Compound 370, N-(Benzo[b]thiophen-2-yl)-N-(4-fluoro-3-trifluoromethyl-benzyl)-3-cyano-benzenesulfonamide]",–
89,4,"Cc1c(N(Cc2ccc(F)c(C(F)(F)F)c2)S(=O)(=O)c2ccc(C(C)(C)O)cc2)sc2ccccc12 [Compound 374, N-(3-Methyl-benzo[b]thiophen-2-yl)-N-(4-fluoro-3-trifluoromethyl-benzyl)-4-(1-hydroxy-1-methyl-ethyl)-benzenesulfonamide]",–
79,37,"COC(=O)c1cccc(S(=O)(=O)N(Cc2ccc(F)c(C(F)(F)F)c2)c2sc3cc(F)ccc3c2C)c1 [Compound 375, N-(6-Fluoro-3-methyl-benzo[b]thiophen-2-yl)-N-(4-fluoro-3-trifluoromethyl-benzyl)-3-carbomethoxy-benzenesulfonamide]",–
85,26,"Cc1c(N(Cc2ccc(F)c(C(F)(F)F)c2)S(=O)(=O)c2cccc(C(=O)O)c2)sc2cc(F)ccc12 [Compound 376, N-(6-Fluoro-3-methyl-benzo[b]thiophen-2-yl)-N-(4-fluoro-3-trifluoromethyl-benzyl)-3-carboxy-benzenesulfonamide]",–
54,–,"COC(=O)c1cccc(CN(c2cc3ccccc3s2)S(=O)(=O)c2cccnc2)c1 [Compound 379, N-(Benzo[b]thiophen-2-yl)-N-(3-carbomethoxy-benzyl)-pyridin-3-ylsulfonamide]",–
49,–,"O=S(=O)(c1cccnc1)N(CCCC(F)(F)F)c1cc2ccccc2s1 [Compound 383, N-(Benzo[b]thiophen-2-yl)-N-(4,4,4-trifluoro-butyl)-pyridin-3-ylsulfonamide]",–
101,12.8,"CC(=O)c1c(N(Cc2ccc(F)c(C(F)(F)F)c2)S(=O)(=O)c2ccc(Br)cc2)sc2ccccc12 [Compound 386, N-(3-Acetyl-benzo[b]thiophen-2-yl)-4-bromo-N-(4-fluoro-3-trifluoromethyl-benzyl)benzenesulfonamide]",–
98,31,"CC(=O)c1c(N(Cc2ccc(F)c(C(F)(F)F)c2)S(=O)(=O)c2ccc(C#N)cc2)sc2ccccc12 [Compound 387, N-(3-Acetyl-benzo[b]thiophen-2-yl)-4-cyano-N-(4-fluoro-3-trifluoromethyl-benzyl)-benzenesulfonamide]",–
